From PubChem BioAssay (NCI)
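Five compound concentrations were applied to cells in 96-well plates for 48 hours; endpoints were derived by simple linear interpolation of the resulting dose-response curve. Here, GI50 denotes the concentration required for 50% inhibition of growth. TGI: concentration producing complete growth inhibition.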

How the values were obtained:
Test in all cases: DTP human tumour cell line panel, 48 h
[1] = test system: MOLT-4 leukemia
[2] = test system: HOP-92 NSCLC
[3] = test system: T-47D breast
[4] = test system: OVCAR-4 ovarian
[5] = test system: SR leukemia
[6] = test system: MALME-3M melanoma
[7] = test system: SW-620 colon
[8] = test system: 786-0 renal
[9] = test system: SK-OV-3 ovarian
[10] = test system: M14 melanoma
[11] = test system: CCRF-CEM leukemia
[12] = test system: SN12C renal
[13] = test system: HCT-15 colon
[14] = test system: DU-145 prostate
[15] = test system: RXF 393 renal
[16] = test system: OVCAR-3 ovarian
[17] = test system: SNB-75 CNS
[18] = test system: EKVX NSCLC
[19] = test system: SK-MEL-28 melanoma
[20] = test system: PC-3 prostate
[21] = test system: NCI-H522 lung
[22] = test system: HOP-62 NSCLC
[23] = test system: A549 NSCLC
[24] = test system: BT-549 breast
[25] = test system: NCI-H23 lung
[26] = test system: HL-60(TB) leukemia
[27] = test system: IGROV1 ovarian
[28] = test system: UACC-62 melanoma
[29] = test system: SF-295 CNS
[30] = test system: K-562 leukemia
[31] = test system: HCC-2998 colon
[32] = test system: TK-10 renal
[33] = test system: CAKI-1 renal
[34] = test system: MDA-N
[35] = test system: MDA-MB-231 breast
[36] = test system: SK-MEL-5 melanoma
[37] = test system: MCF7 breast
[38] = test system: KM12 colon
[39] = test system: RPMI-8226 leukemia
[40] = test system: HT29 colon
[41] = test system: OVCAR-8 ovarian
[42] = test system: MDA-MB-435
[43] = test system: UACC-257 melanoma
[44] = test system: COLO 205 colon
[45] = test system: SF-268 CNS
[46] = test system: NCI-H226 lung
[47] = test system: HS 578T breast
[48] = test system: NCI-H460 lung
[49] = test system: A498 renal
[50] = test system: LOX IMVI melanoma
[51] = test system: UO-31 renal
[52] = test system: SK-MEL-2 melanoma
[53] = test system: SF-539 CNS
[54] = test system: ACHN renal
[55] = test system: NCI/ADR-RES ovarian
[56] = test system: SNB-19 CNS
[57] = test system: OVCAR-5 ovarian
[58] = test system: HCT-116 colon
[59] = test system: U251 CNS

CCOC(=O)C1NCCc2c1[nH]c1ccccc21 (stereo not given)
TGI [1]: > 10000 nM
TGI [2]: > 10000 nM
TGI [3]: > 10000 nM
TGI [4]: > 10000 nM
TGI [5]: > 10000 nM
TGI [6]: > 10000 nM
TGI [7]: > 10000 nM
TGI [8]: > 10000 nM
TGI [9]: > 10000 nM
TGI [10]: > 10000 nM
TGI [11]: > 10000 nM
TGI [12]: > 10000 nM
TGI [13]: > 10000 nM
TGI [14]: > 10000 nM
TGI [15]: > 10000 nM
TGI [16]: > 10000 nM
TGI [17]: > 10000 nM
TGI [18]: > 10000 nM
TGI [19]: > 10000 nM
TGI [20]: > 10000 nM
TGI [21]: > 10000 nM
TGI [22]: > 10000 nM
TGI [23]: > 10000 nM
TGI [24]: > 10000 nM
TGI [25]: > 10000 nM
TGI [26]: > 10000 nM
TGI [27]: > 10000 nM
TGI [28]: > 10000 nM
TGI [29]: > 10000 nM
TGI [30]: > 10000 nM
TGI [31]: > 10000 nM
TGI [32]: > 10000 nM
TGI [33]: > 10000 nM
TGI [34]: > 10000 nM
TGI [35]: > 10000 nM
TGI [36]: > 10000 nM
TGI [37]: > 10000 nM
TGI [38]: > 10000 nM
TGI [39]: > 10000 nM
TGI [40]: > 10000 nM
TGI [41]: > 10000 nM
TGI [42]: > 10000 nM
TGI [43]: > 10000 nM
TGI [44]: > 10000 nM
TGI [45]: > 10000 nM

C/C(=N\Nc1nc2cc(C)ccc2s1)c1ccccn1
TGI [2]: 10300 nM
TGI [3]: > 89700 nM
TGI [4]: > 60500 nM
TGI [46]: 9110 nM
TGI [5]: > 21800 nM
TGI [6]: > 22000 nM
TGI [7]: > 20200 nM
TGI [47]: 39000 nM
TGI [8]: 9590 nM
TGI [9]: 43100 nM
TGI [10]: 3680 nM
TGI [11]: > 100000 nM
TGI [12]: 8850 nM
TGI [48]: 52800 nM
TGI [13]: 30300 nM
TGI [14]: 5650 nM
TGI [15]: > 22900 nM
TGI [17]: 22700 nM
TGI [18]: > 21000 nM
TGI [19]: 12100 nM
TGI [20]: > 23100 nM
TGI [49]: 10600 nM
TGI [50]: 3680 nM
TGI [21]: > 19900 nM
TGI [51]: 11100 nM
TGI [22]: 3620 nM
TGI [52]: 1350 nM
TGI [23]: > 31600 nM
TGI [53]: 41200 nM
TGI [24]: > 69100 nM
TGI [25]: 11800 nM
TGI [26]: 699 nM
TGI [29]: > 40900 nM
TGI [31]: 28500 nM
TGI [32]: > 64000 nM
TGI [33]: 9180 nM
TGI [34]: > 100000 nM
TGI [54]: 11000 nM
TGI [35]: 930 nM
TGI [36]: 4350 nM
TGI [38]: 12600 nM
TGI [39]: 3520 nM
TGI [40]: 6690 nM
TGI [55]: 844 nM
TGI [56]: 21200 nM
TGI [41]: 12100 nM
TGI [42]: > 64500 nM
TGI [43]: > 100000 nM
TGI [45]: 9140 nM
TGI [57]: 19900 nM

CC1(C)CCC(S(=O)(=O)c2ccc3c(c2)/C(=N\O)c2cc(S(=O)(=O)N4CCC(O)(c5cccc(C(F)(F)F)c5)CC4)ccc2-3)CC1
GI50 [1]: 19.9 nM
TGI [1]: 44.4 nM
GI50 [2]: 517 nM
TGI [2]: 3480 nM
GI50 [3]: 19.2 nM
TGI [3]: 41.4 nM
GI50 [4]: 25.1 nM
TGI [4]: 74.4 nM
GI50 [46]: 29.2 nM
TGI [46]: 98.8 nM
GI50 [5]: 17.4 nM
TGI [5]: 44.3 nM
GI50 [6]: 21.6 nM
TGI [6]: 53 nM
GI50 [7]: 15.4 nM
TGI [7]: 31.9 nM
GI50 [47]: 28.7 nM
TGI [47]: 74.9 nM
GI50 [8]: 145 nM
TGI [8]: 360 nM
GI50 [9]: 23.8 nM
TGI [9]: 59.3 nM
GI50 [10]: 19 nM
TGI [10]: 37.5 nM
GI50 [11]: 29.1 nM
TGI [11]: 90.6 nM
GI50 [12]: 61.2 nM
TGI [12]: 2200 nM
GI50 [48]: 26.1 nM
TGI [48]: 61.3 nM
GI50 [13]: 69.4 nM
TGI [13]: 4520 nM
GI50 [14]: 31.9 nM
TGI [14]: 115 nM
GI50 [15]: 53 nM
TGI [15]: 185 nM
GI50 [16]: 21.1 nM
TGI [16]: 44.2 nM
GI50 [17]: 15.8 nM
TGI [17]: 34.9 nM
GI50 [18]: 32.9 nM
TGI [18]: 408 nM
GI50 [19]: 50.5 nM
TGI [19]: 446 nM
GI50 [58]: 16.3 nM
TGI [58]: 32.7 nM
GI50 [20]: 23.8 nM
TGI [20]: 58.5 nM
GI50 [49]: 1690 nM
TGI [49]: 3850 nM
GI50 [50]: 18.3 nM
TGI [50]: 38.1 nM
GI50 [21]: 19.8 nM
TGI [21]: 45.2 nM
GI50 [51]: 1670 nM
TGI [51]: 5490 nM
GI50 [22]: 20.8 nM
TGI [22]: 48.9 nM
GI50 [52]: 17.9 nM
TGI [52]: 36.4 nM
GI50 [23]: 34 nM
TGI [23]: 1050 nM
GI50 [53]: 20.4 nM
TGI [53]: 44.8 nM
GI50 [24]: 54 nM
TGI [24]: 226 nM
GI50 [25]: 118 nM
TGI [25]: 1370 nM
GI50 [26]: 20.3 nM
TGI [26]: 68.1 nM
GI50 [27]: 49.1 nM
TGI [27]: 1070 nM
GI50 [28]: 19.6 nM
TGI [28]: 35.1 nM
GI50 [29]: 27.2 nM
TGI [29]: 110 nM
GI50 [30]: 21.9 nM
TGI [30]: 49.2 nM
GI50 [31]: 23.7 nM
TGI [31]: 54.5 nM
GI50 [32]: 44.1 nM
TGI [32]: 393 nM
GI50 [33]: 75.2 nM
TGI [33]: 1140 nM
GI50 [54]: 43.1 nM
TGI [54]: 1410 nM
GI50 [35]: 21.7 nM
TGI [35]: 43.8 nM
GI50 [36]: 45.4 nM
TGI [36]: 180 nM
GI50 [37]: 20.6 nM
TGI [37]: 48.5 nM
GI50 [59]: 20 nM
TGI [59]: 38.4 nM
GI50 [38]: 21.7 nM
TGI [38]: 50.3 nM
GI50 [39]: 25.5 nM
TGI [39]: 90 nM
GI50 [40]: 25.7 nM
TGI [40]: 72.3 nM
GI50 [55]: 3140 nM
GI50 [56]: 67.3 nM
TGI [56]: 215 nM
GI50 [41]: 34 nM
TGI [41]: 112 nM
GI50 [42]: 28.3 nM
TGI [42]: 122 nM
GI50 [43]: 66.5 nM
TGI [43]: 1110 nM
GI50 [44]: 20.8 nM
TGI [44]: 45.5 nM
GI50 [45]: 19.8 nM
TGI [45]: 42.9 nM
GI50 [57]: 31.7 nM
TGI [57]: 148 nM
